Active and inactive are the calls of the source. The calls are words filed in the database; no cut-off is given here.
What follows are compounds tested on Nucleic Acid (assay: Binding affinity to poly A-poly U RNA assessed as change in melting temperature at compound to DNA molar ratio of 0.2 at pH 7 by thermal denaturation assay). Conditions: not given.
Assay type: nucleic-acid assay

| ΔTm | SMILES |
| --- | --- |
| 0 °C | Cc1c2cc(NC(=O)NCCNC(=O)Nc3ccc4c(c3)c(C)[n+](C)c3ccccc43)ccc2c2ccccc2[n+]1C.O=S(=O)([O-])O.O=S(=O)([O-])O |

What follows are compounds tested on Calf thymus DNA (assay: Binding affinity to calf thymus DNA at compound to DNA molar ratio of 0.1 to 0.5 at pH 5 by circular dichroism). Conditions: Bos taurus.
Assay type: nucleic-acid assay

| Activity | SMILES |
| --- | --- |
| Active | Cc1c2cc(NC(=O)NCCNC(=O)Nc3ccc4c(c3)c(C)[n+](C)c3ccccc43)ccc2c2ccccc2[n+]1C.O=S(=O)([O-])O.O=S(=O)([O-])O |

What follows are compounds tested on Nucleic Acid (assay: Binding affinity to poly A-poly U RNA at compound to DNA molar ratio of 0.1 to 0.5 at pH 5 by circular dichroism). Conditions: not given.
Assay type: nucleic-acid assay

| Activity | SMILES |
| --- | --- |
| Active | Cc1c2cc(NC(=O)NCCNC(=O)Nc3ccc4c(c3)c(C)[n+](C)c3ccccc43)ccc2c2ccccc2[n+]1C.O=S(=O)([O-])O.O=S(=O)([O-])O |

What follows are compounds tested on Nucleic Acid (assay: Binding affinity to poly A-poly U RNA at compound to DNA molar ratio of 0.1 to 0.5 at pH 7 by circular dichroism). Conditions: not given.
Assay type: nucleic-acid assay

| Activity | SMILES |
| --- | --- |
| Active | Cc1c2cc(NC(=O)NCCNC(=O)Nc3ccc4c(c3)c(C)[n+](C)c3ccccc43)ccc2c2ccccc2[n+]1C.O=S(=O)([O-])O.O=S(=O)([O-])O |

These compounds were tested on MIA PaCa-2 (assay: Cytotoxicity against human MIAPaCa2 cells at 100 uM after 72 hrs by MTT assay). Conditions: MIA PaCa-2, 72 h.
Assay type: functional

| SMILES | inhibition at 100 µM |
| --- | --- |
| Cc1c2cc(NC(=O)NCCNC(=O)Nc3ccc4c(c3)c(C)[n+](C)c3ccccc43)ccc2c2ccccc2[n+]1C.O=S(=O)([O-])O.O=S(=O)([O-])O | 35% |

What follows are compounds tested on HEp-2 (assay: Cytotoxicity against human Hep2 cells at 0.1 to 100 uM after 72 hrs by MTT assay). Conditions: not given.
Assay type: functional, cell-based

| SMILES | Activity |
| --- | --- |
| Cc1c2cc(NC(=O)NCCNC(=O)Nc3ccc4c(c3)c(C)[n+](C)c3ccccc43)ccc2c2ccccc2[n+]1C.O=S(=O)([O-])O.O=S(=O)([O-])O | Active |

The compounds below were run on HeLa (assay: Cytotoxicity against human HeLa cells at 0.1 to 100 uM after 72 hrs by MTT assay). Conditions: not given.
Assay type: functional, cell-based

| SMILES | Activity |
| --- | --- |
| Cc1c2cc(NC(=O)NCCNC(=O)Nc3ccc4c(c3)c(C)[n+](C)c3ccccc43)ccc2c2ccccc2[n+]1C.O=S(=O)([O-])O.O=S(=O)([O-])O | Active |

What follows are compounds tested on Nucleic Acid (assay: Binding affinity to AMP in citric acid buffer at pH 5 by fluorescence titration assay relative to control). Conditions: not given.
Assay type: nucleic-acid assay

| RFU | SMILES |
| --- | --- |
| -6.9 | Cc1c2cc(NC(=O)NCCNC(=O)Nc3ccc4c(c3)c(C)[n+](C)c3ccccc43)ccc2c2ccccc2[n+]1C.O=S(=O)([O-])O.O=S(=O)([O-])O |

The compounds below were run on Nucleic Acid (assay: Binding affinity to GMP in citric acid buffer at pH 5 by fluorescence titration assay relative to control). Conditions: not given.
Assay type: nucleic-acid assay

| RFU | SMILES |
| --- | --- |
| 23.5 | Cc1c2cc(NC(=O)NCCNC(=O)Nc3ccc4c(c3)c(C)[n+](C)c3ccccc43)ccc2c2ccccc2[n+]1C.O=S(=O)([O-])O.O=S(=O)([O-])O |

Each compound was assayed on Nucleic Acid (assay: Binding affinity to CMP in citric acid buffer at pH 5 by fluorescence titration assay relative to control). Conditions: not given.
Assay type: nucleic-acid assay

| RFU | SMILES |
| --- | --- |
| 0.3 | Cc1c2cc(NC(=O)NCCNC(=O)Nc3ccc4c(c3)c(C)[n+](C)c3ccccc43)ccc2c2ccccc2[n+]1C.O=S(=O)([O-])O.O=S(=O)([O-])O |

The compounds below were run on Nucleic Acid (assay: Binding affinity to UMP in citric acid buffer at pH 5 by fluorescence titration assay relative to control). Conditions: not given.
Assay type: nucleic-acid assay

| RFU | SMILES |
| --- | --- |
| -13.5 | Cc1c2cc(NC(=O)NCCNC(=O)Nc3ccc4c(c3)c(C)[n+](C)c3ccccc43)ccc2c2ccccc2[n+]1C.O=S(=O)([O-])O.O=S(=O)([O-])O |

What follows are compounds tested on Nucleic Acid (assay: Binding affinity to AMP in sodium cacodylate buffer at pH 7 by fluorescence titration assay relative to control). Conditions: not given.
Assay type: nucleic-acid assay

| RFU | SMILES |
| --- | --- |
| -45.2 | Cc1c2cc(NC(=O)NCCNC(=O)Nc3ccc4c(c3)c(C)[n+](C)c3ccccc43)ccc2c2ccccc2[n+]1C.O=S(=O)([O-])O.O=S(=O)([O-])O |

What follows are compounds tested on Nucleic Acid (assay: Binding affinity to GMP in sodium cacodylate buffer at pH 7 by fluorescence titration assay relative to control). Conditions: not given.
Assay type: nucleic-acid assay

| RFU | SMILES |
| --- | --- |
| 34.2 | Cc1c2cc(NC(=O)NCCNC(=O)Nc3ccc4c(c3)c(C)[n+](C)c3ccccc43)ccc2c2ccccc2[n+]1C.O=S(=O)([O-])O.O=S(=O)([O-])O |

These compounds were tested on Nucleic Acid (assay: Binding affinity to CMP in sodium cacodylate buffer at pH 7 by fluorescence titration assay relative to control). Conditions: not given.
Assay type: nucleic-acid assay

| RFU | SMILES |
| --- | --- |
| 47.7 | Cc1c2cc(NC(=O)NCCNC(=O)Nc3ccc4c(c3)c(C)[n+](C)c3ccccc43)ccc2c2ccccc2[n+]1C.O=S(=O)([O-])O.O=S(=O)([O-])O |

These compounds were tested on Calf thymus DNA (assay: Binding affinity to calf thymus DNA assessed as melting temperature at compound to DNA molar ratio of 0.2 at pH 5 by thermal denaturation assay). Conditions: Bos taurus.
Assay type: nucleic-acid assay

| Tm | SMILES |
| --- | --- |
| 72.7 °C | Cc1c2cc(NC(=O)NCCNC(=O)Nc3ccc4c(c3)c(C)[n+](C)c3ccccc43)ccc2c2ccccc2[n+]1C.O=S(=O)([O-])O.O=S(=O)([O-])O |

The compounds below were run on Calf thymus DNA (assay: Binding affinity to calf thymus DNA assessed as melting temperature at compound to DNA molar ratio of 0.3 at pH 5 by thermal denaturation assay). Conditions: Bos taurus.
Assay type: nucleic-acid assay

| Tm | SMILES |
| --- | --- |
| 75.6 °C | Cc1c2cc(NC(=O)NCCNC(=O)Nc3ccc4c(c3)c(C)[n+](C)c3ccccc43)ccc2c2ccccc2[n+]1C.O=S(=O)([O-])O.O=S(=O)([O-])O |

Each compound was assayed on Nucleic Acid (assay: Binding affinity to […] assessed as melting temperature at compound to DNA molar ratio of 0.3 at pH 5 by thermal denaturation assay). Conditions: not given.
Assay type: nucleic-acid assay

| Tm | SMILES |
| --- | --- |
| 60.7 °C | Cc1c2cc(NC(=O)NCCNC(=O)Nc3ccc4c(c3)c(C)[n+](C)c3ccccc43)ccc2c2ccccc2[n+]1C.O=S(=O)([O-])O.O=S(=O)([O-])O |

What follows are compounds tested on Calf thymus DNA (assay: Binding affinity to calf thymus DNA assessed as melting temperature at compound to DNA molar ratio of 0.3 at pH 7 by thermal denaturation assay). Conditions: Bos taurus.
Assay type: nucleic-acid assay

| Tm | SMILES |
| --- | --- |
| 83.1 °C | Cc1c2cc(NC(=O)NCCNC(=O)Nc3ccc4c(c3)c(C)[n+](C)c3ccccc43)ccc2c2ccccc2[n+]1C.O=S(=O)([O-])O.O=S(=O)([O-])O |

Each compound was assayed on Nucleic Acid (assay: Binding affinity to […] assessed as melting temperature at compound to DNA molar ratio of 0.2 at pH 7 by thermal denaturation assay). Conditions: not given.
Assay type: nucleic-acid assay

| Tm | SMILES |
| --- | --- |
| 70.2 °C | Cc1c2cc(NC(=O)NCCNC(=O)Nc3ccc4c(c3)c(C)[n+](C)c3ccccc43)ccc2c2ccccc2[n+]1C.O=S(=O)([O-])O.O=S(=O)([O-])O |

These compounds were tested on Nucleic Acid (assay: Binding affinity to […] assessed as melting temperature at compound to DNA molar ratio of 0.3 at pH 7 by thermal denaturation assay). Conditions: not given.
Assay type: nucleic-acid assay

| Tm | SMILES |
| --- | --- |
| 71 °C | Cc1c2cc(NC(=O)NCCNC(=O)Nc3ccc4c(c3)c(C)[n+](C)c3ccccc43)ccc2c2ccccc2[n+]1C.O=S(=O)([O-])O.O=S(=O)([O-])O |

What follows are compounds tested on Nucleic Acid (assay: Binding affinity to poly A-poly U RNA assessed as melting temperature at compound to DNA molar ratio of 0.2 at pH 7 by thermal denaturation assay). Conditions: not given.
Assay type: nucleic-acid assay

| Tm | SMILES |
| --- | --- |
| 51.5 °C | Cc1c2cc(NC(=O)NCCNC(=O)Nc3ccc4c(c3)c(C)[n+](C)c3ccccc43)ccc2c2ccccc2[n+]1C.O=S(=O)([O-])O.O=S(=O)([O-])O |

The compounds below were run on Nucleic Acid (assay: Binding affinity to poly A-poly U RNA assessed as biphasic transitions of change in melting temperature at compound to DNA molar ratio of 0.2 at pH 5 by thermal denaturation assay). Conditions: not given.
Assay type: nucleic-acid assay

| ΔTm | SMILES |
| --- | --- |
| -0.1 °C | Cc1c2cc(NC(=O)NCCNC(=O)Nc3ccc4c(c3)c(C)[n+](C)c3ccccc43)ccc2c2ccccc2[n+]1C.O=S(=O)([O-])O.O=S(=O)([O-])O |

What follows are compounds tested on Nucleic Acid (assay: Binding affinity to poly A-poly U RNA assessed as biphasic transitions of melting temperature at compound to DNA molar ratio of 0.2 at pH 5 by thermal denaturation assay). Conditions: not given.
Assay type: nucleic-acid assay

| Tm | SMILES |
| --- | --- |
| 30.7 °C | Cc1c2cc(NC(=O)NCCNC(=O)Nc3ccc4c(c3)c(C)[n+](C)c3ccccc43)ccc2c2ccccc2[n+]1C.O=S(=O)([O-])O.O=S(=O)([O-])O |

Source: ChEMBL document CHEMBL1208667, “Permanent positive charge strongly influences DNA/RNA binding and antiproliferative activity of urea-phenanthridinium conjugates” (Eur J Med Chem, 2010)
